Data taken from doi:10.1101/2025.07.20.665728 (bioRxiv, 2025).

Key:
THP-1.MR1 cells [1] = assay: Competition with Ac-6-FP-induced MR1 upregulation, THP-1.MR1; assay type: cell-based; conditions: 1–200 μM overnight, then 10 μM Ac-6-FP 3 h
hMR1^R9H = target: T1, hMR1^R9H (Homo sapiens, UniProt Q95460, R31H); assay: In vitro refolding of MR1 R9H mutant with ligand; assay type: binding
T1 construct: plasmids encoding for the extracellular domains of MR1, β2m, and the AF-7 TCRα and TCRβ chains; made in house; host or cells: Escherichia coli BL21(DE3), inclusion bodies
Source text: We then tested the effect of the RF catabolites on the expression of two mutant versions of MR1 termed MR1^R9H ([Howson et al., 2020]) and MR1^K43A ([Reantragoon et al., 2013]). First, we tested the MR1^R9H mutant ([Howson et al., 2020]) which represents a rare, natural human polymorph. […] When C1R. […] Next, we tested sought to understand how the previously characterised Lys43A mutation affects ligand binding. […] While this is in line with the ability of these ligands to bind MR1, the reason for MR1^K43A cell surface accumulation is less clear. The most likely explanation is that these ligands bind ER-resident MR1^K43A, in line with our data using wild-type MR1; however, because the K43A mutation results in spontaneous MR1 surface egress, the presence of these stabilising ligands promotes enhanced trafficking and/or retention at the cell surface. We cannot rule out however that the ligands may also bind directly to surface MR1^K43A and slow down the recycling from cell surface.
Escherichia coli BL21(DE3) cells were transformed with plasmids encoding for the extracellular domains of MR1, β2m, and the AF-7 TCRα and TCRβ chains ([Kjer-Nielsen et al., 2012]; [Patel et al., 2013]; [Wang et al., 2022a]). The proteins were then expressed, and the inclusion bodies were purified, cleaned, and used for refolding. […]

MAIT cells in human PBMC = assay: MAIT cell proliferation in CTV-labeled PBMCs; assay type: cell-based; conditions: day 7, 5-OP-RU 10 μM, RF ligands 100 μM
THP-1.MR1 cells [2] = assay: Cell surface MR1 quantification by flow cytometry, THP-1.MR1; assay type: cell-based; conditions: THP-1.MR1, 3 h
Experimental: Next, we investigated whether these RF catabolites can impact MR1 cell surface expression in both MR1-transduced B cell lymphoblastoid (C1R.MR1) and monocytic (THP-1.MR1) cell lines (Fig. 2). Here, the cells were pulsed with 1–200 μM of RF or the RF catabolites, and the cell surface levels of MR1 were quantified by flow cytometry ([Awad et al., 2020a]; [Keller et al., 2017]). Cell viability was unaffected, even at highest concentrations of the catabolites, as depicted in Fig. S2A. […] No impact on the MR1 surface level was observed when the parental C1R cells were incubated with these RF catabolites, probably due to the low basal surface MR1 level whose further reduction becomes undetectable by the anti-MR1 antibody (Fig. S2B). The MR1 downregulation seen in C1R.MR1 cells was specific to MR1 as the level of HLA-A*02:01 was not affected after pulsing C1R-A2 with the ligands (Fig. S2C). […]
The level of MR1 expressed on the cell surface was measured after the exposure to the investigated ligands as previously described ([Awad et al., 2020a]; [Wang et al., 2022a]). […] The PE fluorescence intensity reflects the surface MR1 level. The data was acquired with an LSRFortessa X-20 (BD Biosciences) and Diva software (BD Biosciences) and analyzed using FlowJo software (BD Biosciences).

T1 sequence (Q95460 23-302 R31H): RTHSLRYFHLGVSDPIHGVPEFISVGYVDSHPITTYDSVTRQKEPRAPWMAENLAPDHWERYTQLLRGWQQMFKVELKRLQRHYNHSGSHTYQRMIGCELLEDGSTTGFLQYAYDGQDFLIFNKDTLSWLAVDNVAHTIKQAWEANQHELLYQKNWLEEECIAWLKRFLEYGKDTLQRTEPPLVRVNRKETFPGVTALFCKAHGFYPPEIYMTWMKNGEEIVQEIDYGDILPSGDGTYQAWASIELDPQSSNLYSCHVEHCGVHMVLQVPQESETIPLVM
T1 sequence (P61769 21-119 partner): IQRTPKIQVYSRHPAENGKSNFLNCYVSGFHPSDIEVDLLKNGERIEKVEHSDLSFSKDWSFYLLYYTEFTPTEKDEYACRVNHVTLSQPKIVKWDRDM

Cc1cc2nc3c(=O)[nH]c(=O)nc-3n(C[C@H](O)[C@H](O)[C@H](O)CO)c2cc1C [RF, Riboflavin]
effect on Ac-6-FP-induced cell surface upregulation of MR1 (THP-1.MR1 cells [1]): did not modulate

Cc1cc2nc3[nH]c(=O)[nH]c(=O)c3nc2cc1C [Lumichrome, 7,8-dimethylalloxazine]
refolding with hMR1^R9H in solution (hMR1^R9H): did not refold | MAIT cell proliferation (MAIT cells in human PBMC): significantly reduced MAIT cell proliferation

Cc1cc2nc3c(=O)[nH]c(=O)nc-3n(C)c2cc1C [Lumiflavin]
MR1 cell surface expression (THP-1.MR1 cells [2]): downregulated MR1
